# In patent US11753407B2, “Compounds for treating spinal muscular atrophy” (PTC Therapeutics, Inc., priority 2012, dated 2023):
# How the values were obtained:
# [1] = system: SMN2 minigene mRNA (SMN2-A minigene) in HEK293H cells; assay: SMN2 minigene mRNA splicing RT-qPCR assay in cultured cells; format: cell-based, human; settings: Homo sapiens, HEK293-H; concentration increasing full length SMN2 mRNA 1.5-fold relative to vehicle-treated cells; HEK293H cells with SMN2-A minigene, 24 hours, 7-point concentration data; read-out: EC1.5x for production of full length SMN2 mRNA
# Outline: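 Potency reflects the concentration that lifts full-length SMN2 minigene mRNA 1.5-fold above vehicle in stably transfected HEK293H cells after 24 h of treatment. Transcript abundance came from RT-qPCR as (1+E)^−Ct, normalized to GAPDH; endogenous SMN1/SMN2 are not detected.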
# [2] = system: Smn protein in SMA patient fibroblast cells (GM03813); assay: Smn protein assay in cultured cells (SMN HTRF); format: cell-based, human; settings: SMA patient fibroblast cells, 48 hours; for EC1.5x for Smn protein expression: 7-point concentration curve, SMN HTRF, concentration producing 1.5 times Smn protein vs DMSO vehicle control; for maximum fold (Fold) increase of Smn protein: 7-point concentration data, fold relative to vehicle control
# Outline: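 Smn protein abundance in treated SMA fibroblasts was measured by HTRF after 48 h compound exposure. The reported EC1.5× is the concentration producing 1.5 times vehicle Smn levels.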
melting point,SMILES,EC (1.5-fold increase) [1],EC1.5x for Smn protein expression [2],maximum fold (Fold) increase of Smn protein [2]
268 to 270 °C,"Cn1ncc2cc(-c3cc(=O)n4cc(C5CCNCC5)ccc4n3)ccc21 [Cpd 603, 2-(1-methyl-1H-indazol-5-yl)-7-(piperidin-4-yl)-4H-pyrido[1,2-a]pyrimidin-4-one]",0.1 to 0.3 µM,*** (an EC1.5× between >0.3 μM and ≤1 μM is indicated by three stars (***)),***** (a fold increase >1.65 is indicated by five stars (*****))
242 to 244 °C,"COc1nc(C)cn2nc(-c3cc(=O)n4cc(N5CCN(C)CC5)ccc4n3)cc12 [Cpd 625, 2-(4-methoxy-6-methylpyrazolo[1,5-a]pyrazin-2-yl)-7-(4-methylpiperazin-1-yl)-4H-pyrido[1,2-a]pyrimidin-4-one]",1 to 3 µM,–,** (a fold increase between >1.2 and ≤1.35 is indicated by two stars (**))
280 to 283 °C,"Cc1cn2nc(-c3cc(=O)n4cc(N5CCN(C)CC5)ccc4n3)cc2c(O)n1 [Cpd 626, 2-(4-hydroxy-6-methylpyrazolo[1,5-a]pyrazin-2-yl)-7-(4-methylpiperazin-1-yl)-4H-pyrido[1,2-a]pyrimidin-4-one]",0.3 to 1 µM,** (an EC1.5× between >1 μM and ≤3 μM is indicated by two stars (**)),***** (a fold increase >1.65 is indicated by five stars (*****))
257 to 259 °C,"CCc1nc(C)cn2nc(-c3cc(=O)n4cc(N5CCN(C)[C@H](C)C5)ccc4n3)cc12 [Cpd 629, 7-[(3R)-3,4-dimethylpiperazin-1-yl]-2-(4-ethyl-6-methylpyrazolo[1,5-a]pyrazin-2-yl)-4H-pyrido[1,2-a]pyrimidin-4-one]",< 0.1 µM,**** (an EC1.5x≤0.3 μM is indicated by four stars (****)),***** (a fold increase >1.65 is indicated by five stars (*****))
197 to 199 °C,"Cc1cn2nc(-c3cc(=O)n4cc(C5CCN(CCF)CC5)ccc4n3)cc2c(C)n1 [Cpd 662, 2-(4,6-dimethylpyrazolo[1,5-a]pyrazin-2-yl)-7-[1-(2-fluoroethyl)piperidin-4-yl]-4H-pyrido[1,2-a]pyrimidin-4-one]",< 0.1 µM,**** (an EC1.5x≤0.3 μM is indicated by four stars (****)),***** (a fold increase >1.65 is indicated by five stars (*****))
> 320 °C,"Cc1cn2cc(-c3cc(=O)n4cc(N5CCNCC5)ccc4n3)cc(CO)c2n1 [Cpd 674, 2-[8-(hydroxymethyl)-2-methylimidazo[1,2-a]pyridin-6-yl]-7-(piperazin-1-yl)-4H-pyrido[1,2-a]pyrimidin-4-one]",< 0.1 µM,**** (an EC1.5x≤0.3 μM is indicated by four stars (****)),***** (a fold increase >1.65 is indicated by five stars (*****))
245 to 248 °C,"Cc1cn2nc(-c3cc(=O)n4cc(N5CCNCC5)ccc4n3)cc2c(N(C)C)n1 [Cpd 688, 2-[4-(dimethylamino)-6-methylpyrazolo[1,5-a]pyrazin-2-yl]-7-(piperazin-1-yl)-4H-pyrido[1,2-a]pyrimidin-4-one]",1 to 3 µM,** (an EC1.5× between >1 μM and ≤3 μM is indicated by two stars (**)),*** (a fold increase between >1.35 and ≤1.5 is indicated by three stars (***))
228 to 230 °C,"CCc1nc(C)cn2nc(-c3cc(=O)n4cc(C5CCN(C(CO)CO)CC5)ccc4n3)cc12 [Cpd 694, 7-[1-(1,3-dihydroxypropan-2-yl)piperidin-4-yl]-2-(4-ethyl-6-methylpyrazolo[1,5-a]pyrazin-2-yl)-4H-pyrido[1,2-a]pyrimidin-4-one]",< 0.1 µM,**** (an EC1.5x≤0.3 μM is indicated by four stars (****)),***** (a fold increase >1.65 is indicated by five stars (*****))
